Data taken from ChEMBL document CHEMBL1148820, “Preparation and optimization of a series of 3-carboxamido-5-phenacylaminopyrazole bradykinin B1 receptor antagonists” (J Med Chem, 2007).

How the values were obtained:
[1] = target: T1, B1 bradykinin receptor (Homo sapiens, UniProt P46663); test: Antagonist activity at human bradykinin B1 receptor in IL1-beta stimulated IMR90 cells by FLIPR assay; assay type: functional, cell-based, IMR-90
T1 sequence (P46663 whole entry): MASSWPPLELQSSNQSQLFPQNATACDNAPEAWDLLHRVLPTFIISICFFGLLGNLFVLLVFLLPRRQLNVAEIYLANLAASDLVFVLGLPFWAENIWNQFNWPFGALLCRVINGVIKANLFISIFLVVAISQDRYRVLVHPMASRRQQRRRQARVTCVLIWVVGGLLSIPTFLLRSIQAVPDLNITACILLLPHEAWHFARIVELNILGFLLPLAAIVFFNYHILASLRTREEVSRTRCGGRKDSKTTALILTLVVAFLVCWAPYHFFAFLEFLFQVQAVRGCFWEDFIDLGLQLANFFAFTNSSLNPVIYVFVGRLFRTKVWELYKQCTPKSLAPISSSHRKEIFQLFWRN

[2] = target: T1, B1 bradykinin receptor; test: Displacement of [3H]DAKA from human bradykinin B1 receptor in IL1-beta stimulated IMR90 cells; assay type: cell-based, IMR-90

| Compound | IC50 [1] | Ki [2] |
| --- | --- | --- |
| O=C(Nc1[nH]nc(C(=O)N[C@@H]2CCCCNC2=O)c1Br)c1ccccc1Cl | 290 nM | – |
| CC(=O)Nc1[nH]nc(C(=O)NC2N=C(c3ccccc3)c3ccccc3NC2=O)c1Br (configuration not stated) | > 10000 nM | – |
| CN1CCC(CCNC(=O)c2n[nH]c(NC(=O)c3ccccc3Cl)c2Br)CC1 | 86 nM | – |
| O=C(Nc1[nH]nc(C(=O)Nc2ccccc2)c1Cl)c1ccccc1Cl | 700 nM | – |
| COC(=O)[C@@H](NC(=O)c1n[nH]c(NC(=O)c2ccccc2Cl)c1Br)c1ccccc1 | 290 nM | 73 nM |
| O=C(Nc1[nH]nc(C(=O)NCCC2CCN(c3ccncc3)CC2)c1Cl)c1ccccc1Cl | 3.9 nM | – |
| O=C(Nc1[nH]nc(C(=O)NCCC2CCN(c3ccncc3)CC2)c1F)c1ccccc1Cl | 23 nM | – |
| O=C(Nc1[nH]nc(C(=O)NC2N=C(c3ccccc3)c3ccccc3NC2=O)c1Br)c1ccccc1Cl (racemic) | 5.2 nM | – |
| O=C(Nc1[nH]nc(C(=O)NC2N=C(c3ccccc3)c3ccccc3NC2=O)c1Br)c1ccccc1 (configuration not stated) | 49 nM | – |
| O=C(Nc1[nH]nc(C(=O)NC2N=C(c3ccccc3)c3ccccc3NC2=O)c1Br)c1ccccc1F (configuration not stated) | 10 nM | – |
| O=C(Nc1[nH]nc(C(=O)N[C@@H]2CN3CCC2CC3)c1Br)c1ccccc1Cl | 60 nM | – |
| CN1CCC(N2CCC(CCNC(=O)c3nn(-c4ccccc4)c(NC(=O)c4ccccc4Cl)c3Br)CC2)CC1 | 320 nM | – |
| Cc1nc(-c2n[nH]c(NC(=O)c3ccccc3Cl)c2Br)cs1 | 1100 nM | – |
| O=C(NCCC1CCN(c2ccncc2)CC1)c1cc(NC(=O)c2ccccc2Cl)[nH]n1 | 200 nM | – |
| NC(=O)[C@@H](NC(=O)c1n[nH]c(NC(=O)c2ccccc2Cl)c1Br)c1ccccc1 | 1700 nM | – |
| COc1ccc(-n2nc(C(=O)NCCC3CCN(c4ccncc4)CC3)c(Br)c2NC(=O)c2ccccc2Cl)cc1 | 1200 nM | – |
| O=C(Nc1c(Br)c(C(=O)N[C@@H]2N=C(c3ccccc3)c3ccccc3NC2=O)nn1-c1ccccc1)c1ccccc1Cl | > 10000 nM | – |
| C[C@@H](NC(=O)c1n[nH]c(NC(=O)c2ccccc2Cl)c1Br)C(=O)N1CCCCC1 | 16 nM | – |
| O=C(Nc1[nH]nc(C(=O)Nc2ccccc2)c1Br)c1ccccc1Cl | 530 nM | 200 nM |
| Cn1nc(NC(=O)c2ccccc2Cl)c(Br)c1C(=O)NCCC1CCN(c2ccncc2)CC1 | 640 nM | – |

| Compound | IC50 [1] | Ki [2] |
| --- | --- | --- |
| O=C(Nc1[nH]nc(C(=O)Nc2ccncc2)c1Br)c1ccccc1Cl | 560 nM | – |
| O=C(Nc1[nH]nc(C(=O)NCCC2CCN(c3ccncc3)CC2)c1Br)c1ccccc1Cl | 3 nM | – |
| O=C(Nc1c(Br)c(C(=O)NCCC2CCN(c3ccncc3)CC2)nn1-c1ccccn1)c1ccccc1Cl | 12 nM | – |
| C[C@@H](NC(=O)c1n[nH]c(NC(=O)c2ccccc2Cl)c1Br)c1ccccc1 | 210 nM | – |
| Cc1c(C(=O)NCCC2CCN(c3ccncc3)CC2)n[nH]c1NC(=O)c1ccccc1Cl | 9.3 nM | – |
| Cn1nc(C(=O)NCCC2CCN(c3ccncc3)CC2)c(Br)c1NC(=O)c1ccccc1Cl | 44 nM | – |
| Nc1cccc(N2CCC(CNC(=O)c3n[nH]c(NC(=O)c4ccccc4Cl)c3Br)CC2)n1 | 13 nM | – |
| CC(C)(C)c1ccc(-c2n[nH]c(NC(=O)c3ccccc3Cl)c2Br)cc1 | 3200 nM | – |
| O=C(Nc1c(Br)c(C(=O)N[C@@H]2CCCCNC2=O)nn1-c1ccccc1)c1ccccc1Cl | > 10000 nM | – |
| O=C(Nc1c(Br)c(C(=O)NCCC2CCN(c3ccncc3)CC2)nn1-c1ccccc1)c1ccccc1Cl | 3.5 nM | – |
| O=C(Nc1[nH]nc(C(=O)NCCc2ccncc2)c1Br)c1ccccc1Cl | 490 nM | 120 nM |
| CC[C@@H](NC(=O)c1n[nH]c(NC(=O)c2ccccc2Cl)c1Br)C(=O)N(C)C | 82 nM | – |
| CN1CCC(N2CCC(CCNC(=O)c3n[nH]c(NC(=O)c4ccccc4Cl)c3Br)CC2)CC1 | 1.8 nM | – |
| Cc1c(C(=O)Nc2ccccc2)n[nH]c1NC(=O)c1ccccc1Cl | 2000 nM | – |
| O=C(Nc1ccccc1)c1cc(NC(=O)c2ccccc2Cl)[nH]n1 | > 10000 nM | – |
| O=C(Nc1c(Br)c(C(=O)NCCC2CCN(c3ccncc3)CC2)nn1Cc1ccccc1)c1ccccc1Cl | 71 nM | – |
| CC(C)C(=O)Nc1[nH]nc(C(=O)NC2N=C(c3ccccc3)c3ccccc3NC2=O)c1Br (configuration not stated) | 650 nM | – |
| O=C(Nc1[nH]nc(C(=O)Nc2ccc(CCC3=NCCN3)cc2)c1Br)c1ccccc1Cl | 0.075 nM | – |
| CN(C)CCn1nc(C(=O)NCCC2CCN(c3ccncc3)CC2)c(Br)c1NC(=O)c1ccccc1Cl | 1600 nM | – |
